Values quoted from earlier work, collected in patent US20050272649A1, “Conjoint administration of morphogens and ACE inhibitors in treatment of chronic renal failure” (priority 2002, published 2005).
“Also recorded” adds a separate entry of the source. Like-named read-outs stand apart in the source and are kept apart here.

How the values were obtained:
hypertension = settings: cited from earlier work; for safety / tolerability (in words): clinical studies
[1] = oral administration; cited from earlier work
AT1 receptor = biological target: T1, AT1 receptor (Homo sapiens, UniProt P30556); settings: cited from earlier work
T1 sequence (P30556 1-359): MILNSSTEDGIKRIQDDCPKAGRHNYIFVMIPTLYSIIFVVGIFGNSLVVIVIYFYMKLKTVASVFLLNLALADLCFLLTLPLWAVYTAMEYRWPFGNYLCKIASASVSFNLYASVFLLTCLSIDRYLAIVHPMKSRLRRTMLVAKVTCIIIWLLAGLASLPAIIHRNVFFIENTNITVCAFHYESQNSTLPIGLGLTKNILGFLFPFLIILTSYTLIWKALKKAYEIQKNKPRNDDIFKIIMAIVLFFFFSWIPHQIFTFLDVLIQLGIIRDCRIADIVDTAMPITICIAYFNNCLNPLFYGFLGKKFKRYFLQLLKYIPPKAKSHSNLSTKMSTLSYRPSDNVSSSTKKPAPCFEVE

[2] = comparator and dosages as stated in the sentence
[3] = olmesartan medoxomil 20 mg starting dose

Row | SMILES | safety / tolerability (in words) (hypertension) | antihypertensive efficacy compared (in words) (hypertension; [2]) | oral absorption / bioavailability / pharmacokinetics (in words) [1] | other results
1 | CCCc1nc2c(C)cc(-c3nc4ccccc4n3C)cc2n1Cc1ccc(-c2ccccc2C(=O)O)cc1 [Telmisartan] | side effect profile similar to that of placebo; also recorded: no rebound hypertension or first-dose orthostatic effect | slightly greater antihypertensive effect than enalapril | Nonlinear pharmacokinetics | 
2 | CCCc1nc(C(C)(C)O)c(C(=O)OCc2oc(=O)oc2C)n1Cc1ccc(-c2ccccc2-c2nnn[nH]2)cc1 [olmesartan medoxomil] |  | superior to losartan |  | reduction of diastolic pressure (average) (hypertension; [3]): 12 mm Hg; reduction of systolic pressure (average) (hypertension; [3]): 15 mm Hg
3 | CCCCC1=NC2(CCCC2)C(=O)N1Cc1ccc(-c2ccccc2-c2nnn[nH]2)cc1 [Irbesartan] | safe and effective | as effective as enalapril and atenolol in reducing blood pressure |  | antihypertensive efficacy compared (in words) (hypertension; comparator and dosages as stated in the sentence, listed as irbesartan): significantly greater; affinity for the AT1 receptor relative to affinity for the AT2 receptor (AT1 receptor): more than 8,500 times
4 | CCCCc1nc(Cl)c(CO)n1Cc1ccc(-c2ccccc2-c2nn[nH]n2)cc1 [Losartan] | well tolerated |  |  | antihypertensive efficacy compared (in words) (hypertension; comparator and dosages): as efficacious as enalapril and nifedipine for lowering blood pressure; also recorded: no significant difference in antihypertensive efficacy; duration of activity for a dose (hypertension; losartan): 24 h
5 | CCOc1nc2cccc(C(=O)O)c2n1Cc1ccc(-c2ccccc2-c2nnn[nH]2)cc1 [Candesartan] | both safe and well tolerated | Comparable reductions of diastolic blood pressure | poorly absorbed after oral administration | diastolic blood pressure reduction, adjusted mean more than the 50-mg losartan dosage (hypertension; candesartan 16 mg per day): 3.7 mm Hg; affinity for the AT1 receptor relative to affinity for the AT2 receptor (AT1 receptor): more than 10,000 times
6 | CCOc1nc2cccc(C(=O)OC(C)OC(=O)OC3CCCCC3)c2n1Cc1ccc(-c2ccccc2-c2nnn[nH]2)cc1 (stereo not drawn) [candesartan cilexetil] |  |  | improves bioavailability; also recorded: conversion to the active compound occurs rapidly and completely | 
7 | CCCCC(=O)N(Cc1ccc(-c2ccccc2-c2nnn[nH]2)cc1)[C@H](C(=O)O)C(C)C [Valsartan] | both safe and effective | as effective as ACE inhibitors enalapril, lisinopril and amlodipine |  | 
